Test results as given in article PMC3990405 (Journal of controlled release : official journal of the …, 2013).
Like-named read-outs stand apart in the source and are kept apart here.

Legend:
[1] = system: TNFα-induced cytotoxicity in L929 fibrosarcoma cells; assay: L929 cytoprotection assay against TNFα; format: cell-based, murine
L929 cells = assay: L929 cell proliferation / cytotoxicity without TNFα; format: cell-based, murine; settings: curcumin in DMSO; not shown
phosphorylated NF-κB p65 = assay: TNF-induced NF-κB p65 phosphorylation in U937 monocytes; format: cell-based, human
[2] = Plasma pharmacokinetics after i.m. injection proximal to the sciatic nerve; format: in vivo, C57BL/6 mice
[3] = format: in vivo, C57BL/6 mice
[4] = female, C57BL/6, mouse, plasma, im, 40 μl of 6 mM

- AUC [2, 4]: 0.87 ± 0.13 µM·h
- Tmax [2, 4]: 1 to 2 h
- time window with plasma curcumin significantly above naïve plasma ([2]; mouse, i.m., one-way ANOVA p < 0.0001): 0.5 to 4 h
- Mass of curcumin in injection-site tissue ([3]; 0 h, maximum recoverable, injected after sacrifice, n = 1): 158 nmol
- %ID (nmol/nmol) at injection site ([3]; 0 h, maximum recoverable, n = 1): 59 %ID
- %ID (nmol/nmol) at injection site ([3]; 2 h, mean ± SEM): 36 ± 8.9 %ID
- Mass of curcumin in injection-site tissue ([3]; 2 h, mean ± SEM): 98 ± 24 nmol
- %ID (nmol/nmol) at injection site ([3]; 48 h, mean ± SEM): 0.25 ± 0.002 %ID
- Mass of curcumin in injection-site tissue ([3]; 48 h, mean ± SEM): 0.67 ± 0.004 nmol
- %ID (nmol/nmol) at injection site ([3]; 96 h, mean ± SEM): 0.14 ± 0.04 %ID
- Mass of curcumin in injection-site tissue ([3]; 96 h, mean ± SEM): 0.39 ± 0.12 nmol
Compound: COc1cc(/C=C/C(=O)CC(=O)/C=C/c2ccc(O)c(OC)c2)ccc1O [curcumin]
- IC50 ([1]; Mus musculus, L929, 24 h): 13.5 µM
- Hill slope, k ([1]; logistic fit, Equation 1): 1.472
- dose with some cytotoxic effects (L929 cells): above 30 μM
- attenuation of TNF-induced increases in NF-kB phosphorylation (phosphorylated NF-κB p65; high (5 μM) and low (0.5 μM) doses, 50 ng/ml TNFα 10 min): able to attenuate TNF-induced increases in NF-kB phosphorylation in a dose-dependent manner
- effect on basal NF-kB phosphorylation (phosphorylated NF-κB p65; high (5 μM) and low (0.5 μM) doses, no TNFα): no statistically significant effect
- attenuation of TNF-induced monocyte NF-κB activation (phosphorylated NF-κB p65; high micromolar dose (5 μM), 2 h pre-incubation, 50 ng/ml TNFα 10 min): equally attenuated
